{"source": "paper PMC8302244", "about": "(CPT: Pharmacometrics & Systems Pharmacology, 2021)", "key": {"[1]": {"assay": "Predicted individual exposure metrics"}, "CYP3A4 mRNA": {"system": "CYP3A4 mRNA", "settings": "primary human hepatocytes, up to 300 μM; ref unpublished data on file; cited from earlier work"}, "[2]": {"settings": "cited from earlier work"}, "[3]": {"assay": "Semimechanistic population PK model"}, "[4]": {"system": "human cell lines derived from NC, SCLC, CRPC, TNBC, ER+BC and GIST", "settings": "cited from earlier work"}, "[5]": {"settings": "Besylate substudy—80 mg q.d., W1D1"}, "[6]": {"settings": "Besylate substudy—80 mg q.d., W3D4"}, "[7]": {"settings": "final model Run 32, power estimate of covariate effect"}}}
{"smiles": "COc1ccc2c(c1)C(c1ccc(Cl)cc1)=N[C@@H](CC(N)=O)c1nnc(C)n1-2", "note": "[GSK3529246]", "values": [{"measurement": "AUC0–24 Mean", "setting": "[1]; [5]", "value": 3110.0, "unit": "ng/mL"}, {"measurement": "Cmax Mean", "setting": "[1]; [5]", "value": 316.0, "unit": "ng/mL"}, {"measurement": "Cmin Mean", "setting": "[1]; [5]", "value": 34.7, "unit": "ng/mL"}, {"measurement": "AUC0–24 Mean", "setting": "[1]; [6]", "value": 5890.0, "unit": "ng/mL"}, {"measurement": "Cmax Mean", "setting": "[1]; [6]", "value": 469.0, "unit": "ng/mL"}, {"measurement": "Cmin Mean", "setting": "[1]; [6]", "value": 89.6, "unit": "ng/mL"}, {"measurement": "AUC0–24 Mean", "setting": "[1]; Part 1—40 mg b.i.d., W1D1", "value": 1860.0, "unit": "ng/mL"}, {"measurement": "Cmax Mean", "setting": "[1]; Part 1—40 mg b.i.d., W1D1", "value": 222.0, "unit": "ng/mL"}, {"measurement": "Cmin Mean", "setting": "[1]; Part 1—40 mg b.i.d., W1D1", "value": 94.5, "unit": "ng/mL"}, {"measurement": "AUC0–24 Mean", "setting": "[1]; Part 1—40 mg b.i.d., W3D4", "value": 5810.0, "unit": "ng/mL"}, {"measurement": "Cmax Mean", "setting": "[1]; Part 1—40 mg b.i.d., W3D4", "value": 365.0, "unit": "ng/mL"}, {"measurement": "Cmin Mean", "setting": "[1]; Part 1—40 mg b.i.d., W3D4", "value": 128.0, "unit": "ng/mL"}, {"measurement": "AUC0–24 Mean", "setting": "[1]; Part 1—60 mg q.d., W1D1", "value": 2640.0, "unit": "ng/mL"}, {"measurement": "Cmax Mean", "setting": "[1]; Part 1—60 mg q.d., W1D1", "value": 296.0, "unit": "ng/mL"}, {"measurement": "Cmin Mean", "setting": "[1]; Part 1—60 mg q.d., W1D1", "value": 21.3, "unit": "ng/mL"}, {"measurement": "AUC0–24 Mean", "setting": "[1]; Part 1—60 mg q.d., W3D4", "value": 4240.0, "unit": "ng/mL"}, {"measurement": "Cmax Mean", "setting": "[1]; Part 1—60 mg q.d., W3D4", "value": 379.0, "unit": "ng/mL"}, {"measurement": "Cmin Mean", "setting": "[1]; Part 1—60 mg q.d., W3D4", "value": 57.7, "unit": "ng/mL"}, {"measurement": "AUC0–24 Mean", "setting": "[1]; Part 1—80 mg q.d., W1D1", "value": 3230.0, "unit": "ng/mL"}, {"measurement": "Cmax Mean", "setting": "[1]; Part 1—80 mg q.d., W1D1", "value": 355.0, "unit": "ng/mL"}, {"measurement": "Cmin Mean", "setting": "[1]; Part 1—80 mg q.d., W1D1", "value": 65.8, "unit": "ng/mL"}, {"measurement": "AUC0–24 Mean", "setting": "[1]; Part 1—80 mg q.d., W3D4", "value": 4730.0, "unit": "ng/mL"}, {"measurement": "Cmax Mean", "setting": "[1]; Part 1—80 mg q.d., W3D4", "value": 448.0, "unit": "ng/mL"}, {"measurement": "Cmin Mean", "setting": "[1]; Part 1—80 mg q.d., W3D4", "value": 66.1, "unit": "ng/mL"}, {"measurement": "AUC0–24 Mean", "setting": "[1]; Part 1—100 mg q.d., W1D1", "value": 3910.0, "unit": "ng/mL"}, {"measurement": "Cmax Mean", "setting": "[1]; Part 1—100 mg q.d., W1D1", "value": 383.0, "unit": "ng/mL"}, {"measurement": "Cmin Mean", "setting": "[1]; Part 1—100 mg q.d., W1D1", "value": 46.8, "unit": "ng/mL"}, {"measurement": "AUC0–24 Mean", "setting": "[1]; Part 1—100 mg q.d., W3D4", "value": 6970.0, "unit": "ng/mL"}, {"measurement": "Cmax Mean", "setting": "[1]; Part 1—100 mg q.d., W3D4", "value": 567.0, "unit": "ng/mL"}, {"measurement": "Cmin Mean", "setting": "[1]; Part 1—100 mg q.d., W3D4", "value": 120.0, "unit": "ng/mL"}, {"measurement": "AUC0–24 Mean", "setting": "[1]; Part 2—75 mg q.d., W1D1", "value": 2720.0, "unit": "ng/mL"}, {"measurement": "Cmax Mean", "setting": "[1]; Part 2—75 mg q.d., W1D1", "value": 325.0, "unit": "ng/mL"}, {"measurement": "Cmin Mean", "setting": "[1]; Part 2—75 mg q.d., W1D1", "value": 57.5, "unit": "ng/mL"}, {"measurement": "AUC0–24 Mean", "setting": "[1]; Part 2—75 mg q.d., W3D4", "value": 5010.0, "unit": "ng/mL"}, {"measurement": "Cmax Mean", "setting": "[1]; Part 2—75 mg q.d., W3D4", "value": 431.0, "unit": "ng/mL"}, {"measurement": "Cmin Mean", "setting": "[1]; Part 2—75 mg q.d., W3D4", "value": 82.7, "unit": "ng/mL"}, {"measurement": "donors with concentration‐dependent increase in CYP3A4 mRNA", "setting": "CYP3A4 mRNA", "value": "one donor"}, {"measurement": "free fraction in plasma", "setting": "[2]", "value": "approximately 0.2"}, {"measurement": "GSK3529246 central volume of distribution mV1/F", "setting": "[3]; final model Run 32", "value": 62.1, "unit": "L"}, {"measurement": "GSK3529246 clearance mCL/F", "setting": "[3]; final model Run 32", "value": 12.8, "unit": "L/h"}, {"measurement": "GSK3529246 transit rate mka", "setting": "[3]; final model Run 32", "value": 11.5, "unit": "h⁻¹"}, {"measurement": "AST effect on mCL/F", "setting": "[3]; [7]", "value": "−0.194"}, {"measurement": "Weight effect on V1/F and mV1/F", "setting": "[3]; [7]", "value": 0.717}, {"measurement": "IIV on GSK3529246 transit rate ωmka2", "setting": "[3]; final model Run 32, variance", "value": 0.488}]}
{"smiles": "CCNC(=O)C[C@@H]1N=C(c2ccc(Cl)cc2)c2cc(OC)ccc2-n2c(C)nnc21", "note": "[Molibresib]", "values": [{"measurement": "proliferation of human cancer cell lines", "setting": "[4]", "value": "inhibits the proliferation"}]}
